Columns and labels:
[1] = biological target: T1, Progesterone receptor (Homo sapiens, UniProt P06401); test: Inhibition of tetramethylrhodamine labeled RU486 binding to PR by FP assay
T1 sequence (P06401 whole entry): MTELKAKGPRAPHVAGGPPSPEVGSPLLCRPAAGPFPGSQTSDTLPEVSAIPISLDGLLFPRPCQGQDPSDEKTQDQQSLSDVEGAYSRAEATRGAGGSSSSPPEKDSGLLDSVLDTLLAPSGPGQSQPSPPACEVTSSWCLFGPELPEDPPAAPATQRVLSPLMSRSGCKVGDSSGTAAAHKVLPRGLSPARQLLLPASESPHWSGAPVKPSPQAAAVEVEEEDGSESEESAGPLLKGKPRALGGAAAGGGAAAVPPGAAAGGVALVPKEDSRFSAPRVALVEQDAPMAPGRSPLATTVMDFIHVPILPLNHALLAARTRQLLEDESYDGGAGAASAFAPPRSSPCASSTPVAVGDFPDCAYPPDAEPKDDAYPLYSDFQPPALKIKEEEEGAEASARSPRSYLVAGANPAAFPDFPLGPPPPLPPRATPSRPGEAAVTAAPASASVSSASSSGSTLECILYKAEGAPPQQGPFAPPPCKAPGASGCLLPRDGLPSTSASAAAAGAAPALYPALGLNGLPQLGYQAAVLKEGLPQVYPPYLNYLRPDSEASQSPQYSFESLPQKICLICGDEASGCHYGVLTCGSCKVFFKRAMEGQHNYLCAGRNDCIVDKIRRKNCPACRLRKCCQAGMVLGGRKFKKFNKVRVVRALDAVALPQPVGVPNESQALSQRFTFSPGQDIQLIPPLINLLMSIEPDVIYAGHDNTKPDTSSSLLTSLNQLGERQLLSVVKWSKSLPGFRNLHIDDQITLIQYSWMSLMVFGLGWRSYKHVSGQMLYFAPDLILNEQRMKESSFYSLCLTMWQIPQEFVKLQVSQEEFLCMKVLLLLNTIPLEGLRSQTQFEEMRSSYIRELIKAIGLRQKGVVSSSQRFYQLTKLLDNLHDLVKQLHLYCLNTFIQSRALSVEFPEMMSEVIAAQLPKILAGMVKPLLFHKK

[2] = biological target: T2, Mineralocorticoid receptor (Homo sapiens, UniProt P08235); test: Inhibition of tetramethylrhodamine labeled dexamethasone binding to MR by FP assay
T2 sequence (P08235 whole entry): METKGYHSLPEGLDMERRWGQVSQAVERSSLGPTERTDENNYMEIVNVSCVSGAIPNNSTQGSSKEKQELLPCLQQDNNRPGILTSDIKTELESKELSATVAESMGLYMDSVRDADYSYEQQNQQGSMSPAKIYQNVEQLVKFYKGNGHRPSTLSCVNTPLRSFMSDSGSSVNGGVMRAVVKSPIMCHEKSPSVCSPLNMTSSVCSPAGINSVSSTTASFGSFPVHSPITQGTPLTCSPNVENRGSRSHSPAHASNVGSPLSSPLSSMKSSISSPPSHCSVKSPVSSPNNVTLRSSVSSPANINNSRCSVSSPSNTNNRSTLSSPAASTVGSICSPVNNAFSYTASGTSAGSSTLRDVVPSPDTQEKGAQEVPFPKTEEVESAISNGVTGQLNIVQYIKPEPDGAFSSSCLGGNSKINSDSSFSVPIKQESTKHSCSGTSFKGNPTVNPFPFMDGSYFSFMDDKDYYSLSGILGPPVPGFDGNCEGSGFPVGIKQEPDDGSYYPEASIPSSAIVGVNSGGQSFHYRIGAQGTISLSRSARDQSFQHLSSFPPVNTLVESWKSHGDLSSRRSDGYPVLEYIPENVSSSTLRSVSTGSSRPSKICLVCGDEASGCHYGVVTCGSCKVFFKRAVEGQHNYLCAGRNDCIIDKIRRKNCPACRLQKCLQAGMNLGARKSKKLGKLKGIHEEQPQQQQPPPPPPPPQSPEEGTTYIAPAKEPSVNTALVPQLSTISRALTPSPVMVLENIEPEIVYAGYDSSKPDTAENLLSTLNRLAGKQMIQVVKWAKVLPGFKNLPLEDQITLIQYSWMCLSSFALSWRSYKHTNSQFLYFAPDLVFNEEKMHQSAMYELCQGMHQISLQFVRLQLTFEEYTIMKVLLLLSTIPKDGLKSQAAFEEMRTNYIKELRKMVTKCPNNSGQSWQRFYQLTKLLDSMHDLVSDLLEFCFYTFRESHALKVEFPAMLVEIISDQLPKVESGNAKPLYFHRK

[3] = test system: HFF; test: Inhibition of IL1-stimulated IL6 production in HFF cells; type: functional, cell-based; settings: Homo sapiens
[4] = test system: HFF; test: Inhibition of IL1-stimulated IL6 production in HFF cells relative to Dexamethasone; type: functional, Homo sapiens
[5] = biological target: T3, Glucocorticoid receptor (Homo sapiens, UniProt P04150)
T3 sequence (P04150 whole entry): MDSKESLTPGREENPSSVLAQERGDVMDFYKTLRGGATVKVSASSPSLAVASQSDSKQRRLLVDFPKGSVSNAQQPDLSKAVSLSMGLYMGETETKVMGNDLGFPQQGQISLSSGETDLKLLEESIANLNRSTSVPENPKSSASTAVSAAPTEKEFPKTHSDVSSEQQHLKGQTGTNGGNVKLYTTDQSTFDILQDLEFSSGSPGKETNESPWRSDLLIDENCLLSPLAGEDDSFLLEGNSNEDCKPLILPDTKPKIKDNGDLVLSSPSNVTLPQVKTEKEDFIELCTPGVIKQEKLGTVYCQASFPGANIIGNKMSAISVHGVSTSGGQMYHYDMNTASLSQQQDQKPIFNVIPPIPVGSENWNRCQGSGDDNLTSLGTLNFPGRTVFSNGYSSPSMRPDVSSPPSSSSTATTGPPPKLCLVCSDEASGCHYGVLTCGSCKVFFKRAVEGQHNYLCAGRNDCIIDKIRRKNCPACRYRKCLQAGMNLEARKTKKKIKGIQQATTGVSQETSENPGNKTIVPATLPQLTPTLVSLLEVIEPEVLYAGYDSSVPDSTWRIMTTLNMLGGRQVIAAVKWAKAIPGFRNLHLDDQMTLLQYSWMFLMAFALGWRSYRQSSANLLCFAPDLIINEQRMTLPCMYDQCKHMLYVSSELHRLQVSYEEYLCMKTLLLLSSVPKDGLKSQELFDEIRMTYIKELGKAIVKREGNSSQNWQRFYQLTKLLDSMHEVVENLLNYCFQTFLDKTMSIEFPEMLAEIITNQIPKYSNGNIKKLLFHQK

[6] = test system: HFF; test: Induction of aromatase activity in HFF cells assessed as production of beta estradiol by aromatase assay relative to Dexamethasone; type: functional, Homo sapiens
[7] = test system: HeLa; test: Activation of MMTV in HeLa cells measured by luciferase activity; type: functional, cell-based; settings: Homo sapiens
[8] = test system: HeLa; test: Activation of MMTV in HeLa cells measured by luciferase activity relative to Dexamethasone; type: functional, Homo sapiens
[9] = test system: HFF; test: Induction of aromatase activity in HFF cells assessed as production of beta estradiol by aromatase assay; type: functional, cell-based; settings: Homo sapiens
[10] = test system: Mus musculus; test: Inhibition of LPS-stimulated TNFalpha production in BALB/c mouse at 10 mg/kg, po; type: functional

| SMILES | IC50 [1] | IC50 [2] | IC50 [5] | EC50 [7] | IC50 [3] | Efficacy [4] | Efficacy [6] | Efficacy [8] | EC50 [9] | inhibition in vivo at 10 mg/kg [10] |
| --- | --- | --- | --- | --- | --- | --- | --- | --- | --- | --- |
| COc1ccc(F)cc1C(C)(C)CC(O)(C(=O)Nc1ccc2c(=O)onc(C)c2c1)C(F)(F)F (centres undefined) | 0.022 µM | 0.13 µM | 0.008 µM |  | > 2 µM | 19% |  |  |  |  |
| COc1ccc(F)cc1C(C)(C)CC(O)(CN1C[C@H](C)O[C@@H](C)C1)C(F)(F)F (some centres undefined) | > 2 µM | 1.5 µM | 0.11 µM |  | > 2 µM | 41% |  |  |  |  |
| CC(C)(CC(O)(Cn1ccc(=O)c2ccccc21)C(F)(F)F)c1ccc(F)cc1O (centres undefined) | 0.34 µM | 0.88 µM | 0.003 µM | 0.015 µM |  | 88% | 82% | 35% | 0.017 µM |  |
| COc1ccc(F)cc1C(C)(C)CC(O)(CN1CCCc2ccccc21)C(F)(F)F (centres undefined) | > 2 µM | 1.6 µM | 0.95 µM |  |  |  |  |  |  |  |
| C[C@@H]1C[C@H]2[C@@H]3CCC4=CC(=O)C=C[C@]4(C)[C@@]3(F)[C@@H](O)C[C@]2(C)[C@@]1(O)C(=O)CO [DEXAMETHASONE] | > 2 µM |  |  | 0.017 µM | 0.00051 µM |  |  |  | 0.0019 µM |  |
| COc1ccc(F)cc1C(C)(C)CC(O)(Cn1ccc(=O)c2ncccc21)C(F)(F)F (centres undefined) | > 2 µM | 1.1 µM | 0.077 µM |  | 0.056 µM | 78% | 41% |  |  |  |
| COc1ccc(F)cc1C(C)(C)CC(O)(Cn1cc(C)nc1C)C(F)(F)F (centres undefined) | > 2 µM | 0.62 µM | 0.65 µM |  |  |  |  |  |  |  |
| COc1ccc(F)cc1C(C)(C)CC(O)(CN1CCOCC1)C(F)(F)F (centres undefined) | > 2 µM | > 2 µM | > 2 µM |  |  |  |  |  |  |  |
| COc1ccc(F)cc1C(C)(C)CC(O)(Cn1cnc2ccccc21)C(F)(F)F (centres undefined) | > 2 µM | 0.775 µM | 0.054 µM |  | > 2 µM | 15% |  |  |  |  |
| Cc1noc(=O)c2ccc(NC(=O)C(O)(CC(C)(C)c3cccc4c3OCC4)C(F)(F)F)cc12 (centres undefined) |  | 0.038 µM |  | > 2 µM | 0.059 µM | 80% | 56% | 14% | 0.091 µM |  |
| Cc1cn(CC(O)(CC(C)(C)c2cccc3c2OCC3)C(F)(F)F)cc(C)c1=O (centres undefined) |  |  | 0.034 µM |  | 0.039 µM | 77% | 26% |  |  | 49% |

The next lines start with results.

| IC50 [1] | IC50 [2] | IC50 [5] | EC50 [7] | SMILES | IC50 [3] | Efficacy [4] | Efficacy [6] | Efficacy [8] | EC50 [9] | inhibition in vivo at 10 mg/kg [10] |
| --- | --- | --- | --- | --- | --- | --- | --- | --- | --- | --- |
| > 2 µM | 0.175 µM | 0.034 µM | > 2 µM | COc1ccc(F)cc1C(C)(C)CC(O)(Cn1ccc(=O)c2cnccc21)C(F)(F)F (centres undefined) | 0.035 µM | 72% | 39% | 1% |  |  |
| > 2 µM | 1.9 µM | 0.12 µM | > 2 µM | COc1ccc(F)cc1C(C)(C)CC(O)(Cn1cc(C)c(=O)c(C)c1)C(F)(F)F (centres undefined) | 0.053 µM | 87% | 77% | 3% | 0.17 µM |  |
| 0.555 µM | 0.45 µM | 0.006 µM |  | CC(C)(CC(O)(Cn1ccc(=O)c2ccccc21)C(F)(F)F)c1ccccc1O (centres undefined) | 0.006 µM | 90% |  |  |  |  |
|  |  | 0.125 µM |  | Cc1ccc(F)cc1C(C)(C)CC(O)(Cn1cc(C)c(=O)c(C)c1)C(F)(F)F (centres undefined) | 0.07 µM | 71% | 20% |  | > 2 µM | 48% |
| 0.106 µM | 0.35 µM | 0.028 µM |  | CC(C)(CC(O)(Cn1ccc(=O)c2ccccc21)C(F)(F)F)c1ccccc1 (centres undefined) | 0.078 µM | 48% |  |  |  |  |
| 0.048 µM | 0.098 µM | 0.004 µM |  | CC(C)(CC(O)(Cn1ccc(=O)c2ccccc21)C(F)(F)F)c1cccc2c1OCC2 (centres undefined) | 0.011 µM | 86% | 60% |  |  | 49% |
| > 2 µM | > 2 µM | 0.78 µM |  | Cc1ccc(O)cc1C(C)(C)CC(O)(Cn1ccc(=O)c2ccccc21)C(F)(F)F (centres undefined) |  |  |  |  |  |  |
|  |  | 0.048 µM |  | Cc1ccc(F)cc1C(C)(C)CC(O)(Cn1ccc(=O)c2cnccc21)C(F)(F)F (centres undefined) | 0.047 µM | 59% | 14% |  | > 2 µM | 58% |
| > 2 µM | > 2 µM | 0.69 µM |  | COc1ccc(F)cc1C(C)(C)CC(O)(Cn1cnc(=O)c2ccccc21)C(F)(F)F (centres undefined) |  |  |  |  |  |  |
| > 2 µM | > 2 µM | > 2 µM |  | COc1ccc(F)cc1C(C)(C)CC(O)(Cn1ccnc1)C(F)(F)F (centres undefined) |  |  |  |  |  |  |
| > 2 µM | > 2 µM | > 2 µM |  | COc1ccc(F)cc1C(C)(C)CC(O)(Cn1ccc(=O)cc1)C(F)(F)F (centres undefined) |  |  |  |  |  |  |
| > 2 µM | > 2 µM | 1.4 µM |  | COc1ccc(F)cc1C(C)(C)CC(O)(CN1CCC(=O)CC1)C(F)(F)F (centres undefined) |  |  |  |  |  |  |
| 0.16 µM | 0.16 µM | 0.008 µM |  | Cc1ccc(O)c(C(C)(C)CC(O)(Cn2ccc(=O)c3ccccc32)C(F)(F)F)c1 (centres undefined) | 0.0056 µM | 93% |  |  |  |  |
| 0.525 µM | 0.091 µM | 0.011 µM | > 2 µM | COc1ccc(C)c(C(C)(C)CC(O)(Cn2ccc(=O)c3ccccc32)C(F)(F)F)c1 (centres undefined) | 0.017 µM | 86% | 65% | 6% | 0.095 µM |  |
